Assay results: patent US9975900B2, “Substituted imidazo[1,2-α]pyrazines for treating spinal muscular atrophy” (Hoffmann-La Roche Inc., priority 2014, dated 2018)

Key:
[1] = tested on: SMN protein in SMA patient fibroblast cells (GM03813); assay: SMN protein assay (HTRF) in cultured cells; type: cell-based; details: Homo sapiens, SMA Type 1 patient fibroblasts, 48 hours; for EC (1.5-fold): 7-point concentration curve, concentration giving 1.5 times SMN protein vs vehicle, read-out: EC1.5x SMN protein (EC1.5x concentration for SMN protein expression); for maximal fold induction: fold increase relative to vehicle control, read-out: Max. fold increase of SMN protein
How it was run: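 SMA patient fibroblasts (5,000 cells/well, DMEM-10% FBS) treated 48 h at 37 °C with 7-point, 3.16-fold dilutions, in triplicate. Lysates (RIPA) read overnight by HTRF with anti-SMN d2/cryptate at 665/620 nm. ΔF versus blank gives fold increase over vehicle, from which EC1.5× and maximum fold increase are derived.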

[2] = tested on: full length SMN2 minigene mRNA (HEK293H cells stably transfected with the SMN2-A minigene construct); assay: RT-qPCR assay for SMN2 minigene pre-mRNA splicing in cultured cells; type: cell-based; details: Homo sapiens, HEK293-H, 24 hours, 7-point concentration curve, concentration giving 1.5-fold FL SMN2mini mRNA vs vehicle, read-out: EC1.5x minigene (EC1.5x concentration for production of full length SMN2 minigene mRNA)
How it was run: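 HEK293H cells stably carrying SMN2-A minigene were treated 24 h at 37 °C with a 7-point, 3.16-fold compound series, in duplicate. Minigene-specific exon 7–exon 8 mRNA measured by multiplex RT-qPCR with GAPDH normalisation; fold over vehicle by modified ΔΔCt, reported as EC1.5×.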

| Structure (SMILES) | EC (1.5-fold) [1] | maximal fold induction [1] | EC (1.5-fold) [2] |
| --- | --- | --- | --- |
| Cc1cn2cc(NC(=O)c3ccc(N4CCN5CCC[C@@H]5C4)cc3F)ncc2n1 [Example 7, 4-[(8aR)-3,4,6,7,8,8a-hexahydro-1H-pyrrolo[1,2-a]pyrazin-2-yl]-2-fluoro-N-(2-methylimidazo[1,2-a]pyrazin-6-yl)benzamide] | 0.872 µM | 1.64 | 0.0484 µM |
| Cc1cn2cc(NC(=O)c3ccc(N4CCN5CCC[C@@H]5C4)cc3F)nc(C3CC3)c2n1 [Example 22, 4-[(8aR)-3,4,6,7,8,8a-hexahydro-1H-pyrrolo[1,2-a]pyrazin-2-yl]-N-(8-cyclopropyl-2-methylimidazo[1,2-a]pyrazin-6-yl)-2-fluorobenzamide] | 0.66 µM | 1.5 | 0.0952 µM |
| Cc1cn2cc(NC(=O)c3ccc(N4CC[C@@H](N5CCCC5)C4)cc3F)ncc2n1 [Example 33, 2-fluoro-N-(2-methylimidazo[1,2-a]pyrazin-6-yl)-4-[(3R)-3-pyrrolidin-1-ylpyrrolidin-1-yl]benzamide] | 0.122 µM | 1.78 | 0.0222 µM |
| COc1cc(N2CCNC3(CC3)C2)ccc1C(=O)Nc1cn2cc(C)nc2cn1 [Example 34, 4-(4,7-diazaspiro[2.5]octan-7-yl)-2-methoxy-N-(2-methylimidazo[1,2-a]pyrazin-6-yl)benzamide] | 1.25 µM | 1.69 | 0.214 µM |
